Measurements taken from patent US11733243B2, “Use of acamprosate to modulate ERK1/2 activation in animal models for FXS and ASD and individuals diagnosed with FXS and ASD” (Indiana University Research and Technology Corporation, priority 2013, dated 2023).
“Also recorded” adds a separate entry of the source.

What was measured:
[1] = safety measures and adverse effects in the FXS trial; assay type: in vivo, human
Text: Safety assessment and monitoring began at screen when all subjects underwent a medical history, physical examination, and full psychiatric interview. A physical examination was also completed at end point. Vital signs, including height and weight, were obtained at each study visit. At screen, genetic testing for FXS was obtained if record of molecular testing utilizing Southern Blot and PCR was not available. At screen, week 6, and endpoint, laboratory tests of blood and urine, including CBC with differential and platelets, electrolyte panel, liver associated enzymes, lipid panel, and urine pregnancy test (in females) were obtained. An electrocardiogram was also obtained at screen and endpoint.
The pilot study ran for 10 weeks. Safety lab screens were carried out at weeks 6 and 10. Physiologic parameters measured during the safety screens were as follows: vital signs, LFTs, electrolyte panels, CBC with diff/plts, lipid panel, glucose, urinalysis and ECG.
In-person clinical visits were scheduled for every two weeks. Telephonic evaluations were carried out at weeks 1, 3, and 5. Each subject was evaluated for side effects at every interaction with the practitioner.

[2] = safety and adverse effects in the autistic disorder trial; assay type: in vivo, human; conditions: idiopathic ASD, nine patients, range 600-1,998 mg/day
Description: A 12-week single-blind, placebo-controlled trial of the effect of acamprosate in the treatment of 12 youths with autistic disorder aged 5 to 17 years was carried out. In order to pilot test use of acamprosate in youth with autism targeting core social impairment, was conducted. All subjects and their family members were blinded to treatment status. All subjects participated in a 2 week placebo-lead-in phase prior to 10 weeks of treatment with acamprosate. For this project, enteric coated commercially available 333 mg acamprosate pills were over-encapsulated and identical matching placebo manufactured for the project. Placebo-responders, defined by a Clinical Global Impressions Improvement scale (CGI-I) score of 1 “very much improved” or 2 “much improved” (ratings anchored to core social deficits) at week 2 were asked to exit the study. During active treatment with acamprosate, dosing was increased in 333 mg increments per week over the first six weeks of active treatment to a maximum dose of 1,332 mg/day (weight<5 60 kg) or 1,998 mg/day (weight>60 kg). During the final four weeks of active drug treatment, subjects were maintained on a stable highest tolerated (optimal) dose. The primary outcome measure was the clinician-rated CGI-I anchored to symptoms of social impairment. […]

[3] = tested on: leptin, beta endorphin, cortisol; conditions: humans with alcohol dependence; cited from earlier work
extracellular dopamine = conditions: rats; dependent on glycine receptor activation; cited from earlier work
alcohol intake = conditions: mouse, in vivo; cited from earlier work
NMDA glutamate receptor = conditions: animal studies; cited from earlier work
[4] = tested on: adult males diagnosed with FXS; conditions: 3 adult males, cited from earlier work

**Q.** For `CC(=O)NCCCS(=O)(=O)O` [Acamprosate, 3-Acetamidopropane-1-sulfonic acid], which “changes in lipids, electrolytes, liver function tests, or blood counts” value ([1]; 10 weeks) is on record?
**A.** The value was “no clinically significant or mean changes”.

**Q.** What about the “changes in weight, pulse, or blood pressure” value ([1]; 10 weeks) of the same molecule?
**A.** The value was “No clinically significant changes”.

**Q.** And the “Increased body rocking (mild), Number of Patients” value ([1]; 12 subjects)?
**A.** Its value is 1.

**Q.** What about the “subjects who experienced a mild adverse event” value ([1]; 12 subjects) of the same molecule?
**A.** Its value is 75%.

**Q.** What about the tolerability ([1]; 12 subjects, 10 weeks) of the same molecule?
**A.** Its tolerability is “well tolerated overall, with no severe or serious adverse effects”.

**Q.** What about the “changes on ECG including QTc interval” value ([1]; screen vs endpoint) of the same molecule?
**A.** Its value is “No clinically significant changes were noted on ECG”.

**Q.** What about the tolerability [2] of the same molecule?
**A.** The tolerability was “well tolerated with no adverse effects leading to drug discontinuation or laboratory/vital sign abnormalities noted; also recorded: well tolerated with no adverse effects leading to drug discontinuation and no vital sign or safety laboratory changes noted”.

**Q.** And the hormone levels [3]?
**A.** The hormone levels was “lowers levels of several hormones: leptin, beta endorphin, cortisol”.

**Q.** What about the “extracellular dopamine levels in the nucleus accumbens” value (extracellular dopamine) of the same molecule?
**A.** Its value is “elevates extracellular dopamine levels in the nucleus accumbens”.

**Q.** And the alcohol intake (alcohol intake)?
**A.** Its alcohol intake is “reduced alcohol intake”.

**Q.** What about the “action at the NMDA glutamate receptor” value (NMDA glutamate receptor) of the same molecule?
**A.** Its value is “bind and act as an antagonist at the NMDA glutamate receptor”.

**Q.** And the “clinical response measured by the CGI-I” value ([4]; mean dose 1,221 mg/day, mean duration 21.3 weeks)?
**A.** The value was “all 3 subjects showed significant positive clinical response”.

**Q.** What about the “subjects with non-treatment limiting gastrointestinal distress (emesis and/or nausea)” value [4] of the same molecule?
**A.** Its value is “Two”.
